In BigSolDB 2.1:

O=C(NNC(=S)Nc1ccc(Cl)cc1)c1ccncc1
Settings	solubility (mole fraction)
in PEG-400, 298.15 K	0.108
in PEG-400, 308.15 K	0.114
in PEG-400, 318.15 K	0.12
in PEG-400, 328.15 K	0.126
in PEG-400, 338.15 K	0.131

solubility (mole fraction)
Settings	298.15 K	308.15 K	318.15 K	328.15 K	338.15 K
in ethanol	0.000647	0.000693	0.000743	0.000792	0.000834
in ethylene glycol	0.0077	0.00841	0.00894	0.00961	0.0104
in isopropanol	0.00113	0.00121	0.00121	0.00129	0.00138
in propylene glycol	0.00738	0.00789	0.00848	0.00909	0.00987
